Test results reported in PMC3524758, “Development and evaluation of a novel radioiodinated vesamicol analog as a sigma receptor imaging agent” (EJNMMI Research, 2012).
Where “and” joins values, the source holds several entries; their conditions need not be identical. Equal entries are not always repeated. Marks after values point to notes of the source that are not given here.

Legend:
[1] = Biodistribution in DU-145 tumor-bearing mice; assay type: in vivo; settings: i.v., mean (SD)
Experimental: (+)-^131I]pIV was prepared using a method described previously. To produce tumors, approximately 5 × 10^6 of the prepared DU-145 cells was injected subcutaneously into the right dorsum of 4-week-old male BALB/c nude mice (15 to 19 g, Japan SLC, Inc.). Biodistribution experiments were performed at approximately 14- to 21-day post-inoculation, i.e., when tumors reached a palpable size. Groups of four mice were intravenously administered with 100 μL of a mixed solution of (+)-^125I]IV-OH (37 kBq) and (+)-^131I]pIV (37 kBq). At 10-min, 1-, 3-, and 24-h post-injections, the mice were killed. Tissues of interest were removed and weighed, and radioactivity counts were determined with an auto well gamma counter and corrected for background radiation. A window from 16 to 71 keV was used for measuring ^125I and one from 300 to 433 keV for ^131I. The crossover of ^125I activity into the ^131I channel was negligible. Correlation factors to eliminate any crossover of ^131I activity into ^125I were determined by measuring the ^131I standard in both windows.

[2] = tested on: DU-145 prostate cancer cell lines; test: Cellular uptake and washout experiments in vitro; assay type: cell-based; settings: DU-145 cells
Experimental: Radiotracer uptake studies were performed in monolayer cultures of DU-145 prostate cancer cell lines, which were obtained from ATCC (Manassas, VA, USA). Cells were grown in cell culture dishes in RPMI 1640 medium with phenol red, 10% heat-inactivated fetal bovine serum (FBS), 100-μg/mL glutamine, 100-units/mL penicillin, and 100-μg/mL streptomycin at 37°C in a humidified atmosphere of 95% air and 5% carbon dioxide. Cells were plated on 6-well tissue culture plates (4 × 10^5 cells/well) for 24 h before the study and incubated at 37°C in the culture medium without FBS containing (+)-^125I]IV-OH or (+)-^125I]pIV (3.7 kBq/well), which was prepared by a method of a previous study for different time intervals (15, 30, 60, and 120 min). For the washout experiment, tumor cells exposed to a medium containing (+)-^125I]IV-OH or (+)-^125I]pIV for 60 min were washed with phosphate buffered saline (PBS) and incubated in fresh (nonradioactive) medium without FBS at 37°C for 15, 30, and 60 min. […] After incubation, cells were washed twice with ice-cold PBS and resolved by adding 0.5 mL of 1-M NaOH. The solutions were then collected and the radioactivity was determined with an auto well gamma counter (ARC-380; Aloka) and corrected for background radiation. The radioactivity of each sample was normalized for the protein level, which was determined using a Protein Assay Bicinchoninate Kit (Nacalai Tesque).

[3] = Partition coefficient (1-octanol / 0.02-M phosphate buffer); assay type: physicochemical
Experimental: The partition coefficient of (+)-^125I]IV-OH was measured as described previously.

[4] = Metabolite analysis in blood, tumor and other tissues (TLC); assay type: in vivo, mice; settings: i.v., mean (SD) three samples
Experimental: For metabolite analysis, the above-mentioned DU-145 tumor-bearing mice were intravenously administered with 100 μL of (+)-[^125I]IV-OH (3.7 MBq). At 10-min and 1-h post-injections, the mice were killed. Blood was collected and tissues of interest were removed. The blood was centrifuged at 1,000×g for 10 min at 4°C. After the plasma was collected, an equivalent volume of acetonitrile/water mixture (1:1) was added to the plasma. The mixture was centrifuged at 1,000×g for 10 min at 4°C. The tissues of interest (0.2 to 0.5 g) were homogenized in 1 mL of acetonitrile-water mixture (1:1). Each homogenized sample was centrifuged at 1,000×g for 10 min at 4°C. The supernatants were analyzed by TLC with a chloroform/methanol mixture (5:1) as a developing solvent. TLC plates were exposed to phosphor imaging plates (BAS IP SR 2025 E, Fujifilm, Tokyo, Japan) for 48 h. The exposed imaging plates were evaluated using an imaging scanner (BAS 5000 Bio-Imaging Analyzer, Fujifilm).

In the case of `Oc1ccc(C2CCN(C3CCCCC3O)CC2)cc1[125I]` (single isomer, unassigned; (+)) [(+)-[^125I]IV-OH], the “Biodistribution of radioactivity, Blood” value ([1]; 10 min post-injection) is reported as 1.28 (0.13)* percent injected dose per gram tissue, the “Biodistribution of radioactivity, Blood” value ([1]; 1 h post-injection) is reported as 1.04 (0.10)* percent injected dose per gram tissue and the “Biodistribution of radioactivity, Blood” value ([1]; 3 h post-injection) is reported as 0.43 (0.09)** percent injected dose per gram tissue. The “Biodistribution of radioactivity, Blood” value ([1]; 24 h post-injection) was 0.00 (0.00)* percent injected dose per gram tissue, the “Biodistribution of radioactivity, Brain” value ([1]; 10 min post-injection) was 5.14 (0.50)* percent injected dose per gram tissue and the “Biodistribution of radioactivity, Brain” value ([1]; 1 h post-injection) was 1.04 (0.08)* percent injected dose per gram tissue. The “Biodistribution of radioactivity, Brain” value ([1]; 3 h post-injection) was 0.22 (0.02)* percent injected dose per gram tissue, the “Biodistribution of radioactivity, Brain” value ([1]; 24 h post-injection) was 0.00 (0.00)* percent injected dose per gram tissue and the “Biodistribution of radioactivity, Heart” value ([1]; 10 min post-injection) was 3.57 (0.40)* percent injected dose per gram tissue. The “Biodistribution of radioactivity, Heart” value ([1]; 1 h post-injection) was 0.78 (0.05)* percent injected dose per gram tissue, the “Biodistribution of radioactivity, Heart” value ([1]; 3 h post-injection) was 0.27(0.00)** percent injected dose per gram tissue and the “Biodistribution of radioactivity, Heart” value ([1]; 24 h post-injection) was 0.01 (0.01)* percent injected dose per gram tissue. For the same compound, the “Biodistribution of radioactivity, Intestine” value (“Biodistribution … Intestine” for short) ([1]; 10 min post-injection) was 5.26 (0.61)* percent injected dose per gram tissue, the “Biodistribution … Intestine” value ([1]; 1 h post-injection) was 7.96 (0.72)* percent injected dose per gram tissue and the “Biodistribution … Intestine” value ([1]; 3 h post-injection) was 4.84 (0.95) percent injected dose per gram tissue. The “Biodistribution … Intestine” value ([1]; 24 h post-injection) was 0.14 (0.02)* percent injected dose per gram tissue, the “Biodistribution of radioactivity, Kidney” value ([1]; 10 min post-injection) was 35.01 (2.83)* percent injected dose per gram tissue and the “Biodistribution of radioactivity, Kidney” value ([1]; 1 h post-injection) was 15.30 (1.80) percent injected dose per gram tissue. For the same compound, the “Biodistribution of radioactivity, Kidney” value ([1]; 3 h post-injection) was 4.89 (0.87)** percent injected dose per gram tissue, the “Biodistribution of radioactivity, Kidney” value ([1]; 24 h post-injection) was 0.04 (0.01)* percent injected dose per gram tissue and the “Biodistribution of radioactivity, Liver” value ([1]; 10 min post-injection) was 7.82 (0.32)* percent injected dose per gram tissue. For the same compound, the “Biodistribution of radioactivity, Liver” value ([1]; 1 h post-injection) was 9.80 (0.94)** percent injected dose per gram tissue, the “Biodistribution of radioactivity, Liver” value ([1]; 3 h post-injection) was 2.81 (0.33)* percent injected dose per gram tissue and the “Biodistribution of radioactivity, Liver” value ([1]; 24 h post-injection) was 0.06 (0.03)* percent injected dose per gram tissue. For the same compound, the “Biodistribution of radioactivity, Lung” value ([1]; 10 min post-injection) was 9.74 (1.59)* percent injected dose per gram tissue, the “Biodistribution of radioactivity, Lung” value ([1]; 1 h post-injection) was 1.85 (0.18)* percent injected dose per gram tissue and the “Biodistribution of radioactivity, Lung” value ([1]; 3 h post-injection) was 0.63 (0.11)* percent injected dose per gram tissue. For the same compound, the “Biodistribution of radioactivity, Lung” value ([1]; 24 h post-injection) was 0.01 (0.02)* percent injected dose per gram tissue, the “Biodistribution of radioactivity, Muscle” value ([1]; 10 min post-injection) was 2.20 (0.58) percent injected dose per gram tissue and the “Biodistribution of radioactivity, Muscle” value ([1]; 1 h post-injection) was 0.45 (0.03)* percent injected dose per gram tissue. For the same compound, the “Biodistribution of radioactivity, Muscle” value ([1]; 3 h post-injection) was 0.26 (0.10) percent injected dose per gram tissue, the “Biodistribution of radioactivity, Muscle” value ([1]; 24 h post-injection) was 0.01 (0.01)* percent injected dose per gram tissue and the “Biodistribution of radioactivity, Pancreas” value (shortened to “Biodistribution … Pancreas”) ([1]; 10 min post-injection) was 25.04 (2.40)* percent injected dose per gram tissue. The “Biodistribution … Pancreas” value ([1]; 1 h post-injection) was 12.80 (0.97)* percent injected dose per gram tissue, the “Biodistribution … Pancreas” value ([1]; 3 h post-injection) was 2.94 (0.49)* percent injected dose per gram tissue and the “Biodistribution … Pancreas” value ([1]; 24 h post-injection) was 0.01 (0.01)* percent injected dose per gram tissue. The “Biodistribution of radioactivity, Spleen” value ([1]; 10 min post-injection) was 8.11 (1.24) percent injected dose per gram tissue, the “Biodistribution of radioactivity, Spleen” value ([1]; 1 h post-injection) was 1.84 (0.11)* percent injected dose per gram tissue and the “Biodistribution of radioactivity, Spleen” value ([1]; 3 h post-injection) was 0.60 (0.12)* percent injected dose per gram tissue. The “Biodistribution of radioactivity, Spleen” value ([1]; 24 h post-injection) was 0.01 (0.02)* percent injected dose per gram tissue, the “Biodistribution of radioactivity, Stomach” value (shortened to “Biodistribution … Stomach”) ([1]; 10 min post-injection) was 1.18 (0.36) percent injected dose and the “Biodistribution … Stomach” value ([1]; 1 h post-injection) was 0.62 (0.18) percent injected dose. The “Biodistribution … Stomach” value ([1]; 3 h post-injection) was 0.55 (0.25) percent injected dose, the “Biodistribution … Stomach” value ([1]; 24 h post-injection) was 0.03 (0.02)* percent injected dose and the “Biodistribution of radioactivity, Tumor” value ([1]; 10 min post-injection) was 9.55 (0.64)** percent injected dose per gram tissue. The “Biodistribution of radioactivity, Tumor” value ([1]; 1 h post-injection) was 5.45 (0.70) percent injected dose per gram tissue, the “Biodistribution of radioactivity, Tumor” value ([1]; 3 h post-injection) was 2.57 (0.41) percent injected dose per gram tissue and the “Biodistribution of radioactivity, Tumor” value ([1]; 24 h post-injection) was 0.06 (0.04)** percent injected dose per gram tissue. For the same compound, the “time at which uptake was saturated” value [2] was 30 min, the “accumulation in the presence of haloperidol” value ([2]; haloperidol 10 μM in culture medium) was “remarkably lessened” and the “intracellular radioactivity released into the supernatant” value ([2]; within 60 min after medium replacement, specific uptake) was “Approximately 71%”. For the same compound, the “log P” value [3] was 1.13 ± 0.01, the “percent of intact (+)-[^125I]IV-OH, Blood” value ([4]; 10 min post-injection) was 17.0 (9.0) percent and the “percent of intact (+)-[^125I]IV-OH, Blood” value ([4]; 1 h post-injection) was 0.9% and 0.9 (1.0) percent. The “percent of intact (+)-[^125I]IV-OH, Brain” value ([4]; 10 min post-injection) was 96.4 (1.1) percent, the “percent of intact (+)-[^125I]IV-OH, Brain” value ([4]; 1 h post-injection) was 73.7 (8.4) percent and the “percent of intact (+)-[^125I]IV-OH, Kidney” value ([4]; 10 min post-injection) was 19.8 (3.7) percent. The “percent of intact (+)-[^125I]IV-OH, Kidney” value ([4]; 1 h post-injection) was 2.6% and 2.6 (1.8) percent, the “percent of intact (+)-[^125I]IV-OH, Liver” value ([4]; 10 min post-injection) was 5.4 (7.4) percent and the “percent of intact (+)-[^125I]IV-OH, Liver” value ([4]; 1 h post-injection) was 0.1% and 0.1 (0.2) percent. For the same compound, the “percent of intact (+)-[^125I]IV-OH, Tumor” value ([4]; 10 min post-injection) was 93.1 (4.3) percent and the “percent of intact (+)-[^125I]IV-OH, Tumor” value ([4]; 1 h post-injection) was 70.2 (5.6) percent.
